Reference: the supplement of paper PMC10307832

What was measured:
Assay in all cases: relative viability (nuclei count vs DMSO), 5 days (fraction); higher = more cells survive
201T = system: 201T
Outline: (§1)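 A single step with final 0.05% Triton X-100, 1% formaldehyde and 1 ug/ml Hoechst fixed the cells and stained nuclei 5 days after treatment. Lung cancer cell lines in 1536-well plates had been treated by pin tool the day after seeding with one drug alone or a fixed anchor-drug dose plus five library-drug doses (not always all listed) in √10 steps, and nuclei were counted on 4× images. Relative viability is the ratio of nuclei in treated wells to nuclei in vehicle wells, taken as the median of duplicate plates.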

COR-L23 = system: COR-L23
Outline: as §1

ChaGo-K-1 = system: ChaGo-K-1
Outline: as §1

HARA = system: HARA
Outline: as §1

HCC-15 = system: HCC-15
Outline: as §1

HCC-366 = system: HCC-366
Outline: as §1

HCC-78 = system: HCC-78
Outline: as §1

LCLC-103H = system: LCLC-103H
Outline: as §1

LCLC-97TM1 = system: LCLC-97TM1
Outline: as §1

LOU-NH91 = system: LOU-NH91
Outline: as §1

NCI-H1355 = system: NCI-H1355
Outline: as §1

NCI-H1734 = system: NCI-H1734
Outline: as §1

NCI-H2009 = system: NCI-H2009
Outline: as §1

NCI-H2126 = system: NCI-H2126
Outline: as §1

NCI-H441 = system: NCI-H441
Outline: as §1

NCI-H460 = system: NCI-H460
Outline: as §1

NCI-H596 = system: NCI-H596
Outline: as §1

NCI-H647 = system: NCI-H647
Outline: as §1

NCI-H650 = system: NCI-H650
Outline: as §1

PC-14 = system: PC-14
Outline: as §1

SW 900 = system: SW 900
Outline: as §1

What does the source list for `COCC1(CO)C(=O)C2CCN1CC2` (stereo not drawn) [PRIMA-1MET] + O=C(CCCCCCC(=O)Nc1ccccc1)NO [Vorinostat] (partner 1 µM)?
relative viability (201T; first compound 0.2 µM): 1.15; relative viability (201T; first compound 0.6325 µM): 0.676; relative viability (201T; first compound 2 µM): 0.797; relative viability (201T; first compound 6.325 µM): 0.991; relative viability (201T; first compound 20 µM): 0.98; relative viability (COR-L23; first compound 0.2 µM): 0.487; relative viability (COR-L23; first compound 0.6325 µM): 0.432; relative viability (COR-L23; first compound 2 µM): 0.454; relative viability (COR-L23; first compound 6.325 µM): 0.344; relative viability (COR-L23; first compound 20 µM): 0.0281; relative viability (ChaGo-K-1; first compound 0.2 µM): 0.858; relative viability (ChaGo-K-1; first compound 0.6325 µM): 0.431; relative viability (ChaGo-K-1; first compound 2 µM): 0.627; relative viability (ChaGo-K-1; first compound 6.325 µM): 0.743; relative viability (ChaGo-K-1; first compound 20 µM): 0.709; relative viability (HARA; first compound 0.2 µM): 0.544; relative viability (HARA; first compound 0.6325 µM): 0.266; relative viability (HARA; first compound 6.325 µM): 0.587; relative viability (HARA; first compound 20 µM): 0.499; relative viability (HCC-15; first compound 0.2 µM): 0.962; relative viability (HCC-15; first compound 0.6325 µM): 0.798; relative viability (HCC-15; first compound 2 µM): 0.887; relative viability (HCC-15; first compound 6.325 µM): 0.871; relative viability (HCC-15; first compound 20 µM): 0.758; relative viability (HCC-366; first compound 0.2 µM): 0.596; relative viability (HCC-366; first compound 0.6325 µM): 0.252; relative viability (HCC-366; first compound 2 µM): 0.249; relative viability (HCC-366; first compound 6.325 µM): 0.336; relative viability (HCC-366; first compound 20 µM): 0.0291; relative viability (HCC-78; first compound 0.2 µM): 0.624; relative viability (HCC-78; first compound 0.6325 µM): 0.407; relative viability (HCC-78; first compound 2 µM): 0.392; relative viability (HCC-78; first compound 6.325 µM): 0.403; relative viability (HCC-78; first compound 20 µM): 0.102; relative viability (LCLC-103H; first compound 0.2 µM): 0.76; relative viability (LCLC-103H; first compound 0.6325 µM): 0.64; relative viability (LCLC-103H; first compound 2 µM): 0.558; relative viability (LCLC-103H; first compound 6.325 µM): 0.771; relative viability (LCLC-103H; first compound 20 µM): 0.793; relative viability (LCLC-97TM1; first compound 0.2 µM): 0.547; relative viability (LCLC-97TM1; first compound 0.6325 µM): 0.675; relative viability (LCLC-97TM1; first compound 2 µM): 0.747; relative viability (LCLC-97TM1; first compound 6.325 µM): 0.791; relative viability (LCLC-97TM1; first compound 20 µM): 0.464; relative viability (LOU-NH91; first compound 0.2 µM): 0.987; relative viability (LOU-NH91; first compound 0.6325 µM): 0.878; relative viability (LOU-NH91; first compound 2 µM): 0.759; relative viability (LOU-NH91; first compound 6.325 µM): 0.863; relative viability (LOU-NH91; first compound 20 µM): 0.296; relative viability (NCI-H1355; first compound 0.2 µM): 0.648; relative viability (NCI-H1355; first compound 0.6325 µM): 0.632; relative viability (NCI-H1355; first compound 2 µM): 0.556; relative viability (NCI-H1355; first compound 6.325 µM): 0.671; relative viability (NCI-H1355; first compound 20 µM): 0.58; relative viability (NCI-H1734; first compound 0.2 µM): 1.08; relative viability (NCI-H1734; first compound 0.6325 µM): 0.718; relative viability (NCI-H1734; first compound 2 µM): 0.777; relative viability (NCI-H1734; first compound 6.325 µM): 0.536; relative viability (NCI-H1734; first compound 20 µM): 0.0676; relative viability (NCI-H2009; first compound 0.2 µM): 0.752; relative viability (NCI-H2009; first compound 0.6325 µM): 0.801; relative viability (NCI-H2009; first compound 2 µM): 0.668; relative viability (NCI-H2009; first compound 6.325 µM): 0.5; relative viability (NCI-H2009; first compound 20 µM): 0.381; relative viability (NCI-H2126; first compound 0.2 µM): 0.784; relative viability (NCI-H2126; first compound 0.6325 µM): 0.796; relative viability (NCI-H2126; first compound 2 µM): 0.606; relative viability (NCI-H2126; first compound 6.325 µM): 0.765; relative viability (NCI-H2126; first compound 20 µM): 0.788; relative viability (NCI-H441; first compound 0.2 µM): 0.689; relative viability (NCI-H441; first compound 0.6325 µM): 0.6; relative viability (NCI-H441; first compound 2 µM): 0.887; relative viability (NCI-H441; first compound 6.325 µM): 0.96; relative viability (NCI-H441; first compound 20 µM): 0.553; relative viability (NCI-H460; first compound 0.2 µM): 0.949; relative viability (NCI-H460; first compound 0.6325 µM): 0.588; relative viability (NCI-H460; first compound 2 µM): 0.686; relative viability (NCI-H460; first compound 6.325 µM): 0.613; relative viability (NCI-H460; first compound 20 µM): 0.0194; relative viability (NCI-H596; first compound 0.2 µM): 0.694; relative viability (NCI-H596; first compound 0.6325 µM): 0.589; relative viability (NCI-H596; first compound 2 µM): 0.421; relative viability (NCI-H596; first compound 6.325 µM): 0.732; relative viability (NCI-H596; first compound 20 µM): 0.147; relative viability (NCI-H647; first compound 0.2 µM): 0.849; relative viability (NCI-H647; first compound 0.6325 µM): 0.444; relative viability (NCI-H647; first compound 2 µM): 0.549; relative viability (NCI-H647; first compound 6.325 µM): 0.538; relative viability (NCI-H647; first compound 20 µM): 0.596; relative viability (NCI-H650; first compound 0.2 µM): 0.54; relative viability (NCI-H650; first compound 0.6325 µM): 0.361; relative viability (NCI-H650; first compound 2 µM): 0.442; relative viability (NCI-H650; first compound 6.325 µM): 0.311; relative viability (NCI-H650; first compound 20 µM): 0.0619; relative viability (PC-14; first compound 0.2 µM): 0.722; relative viability (PC-14; first compound 0.6325 µM): 0.755; relative viability (PC-14; first compound 2 µM): 0.728; relative viability (PC-14; first compound 6.325 µM): 0.777; relative viability (PC-14; first compound 20 µM): 0.019; relative viability (SW 900; first compound 0.2 µM): 0.58; relative viability (SW 900; first compound 0.6325 µM): 0.427; relative viability (SW 900; first compound 6.325 µM): 0.504; relative viability (SW 900; first compound 20 µM): 0.129
